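Growth conditions: 96-well plates. Treatment: test compound, 48 hours, 5 concentrations. Analysis: linear interpolation between bracketing concentrations; unreached endpoints set to highest concentration. GI50 marks 50% less growth.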 Calls of active or inactive are those of the source. Rule as the data show it: active = GI50 up to about 1.1 µM and inactive = higher.
Key:
Assay in all cases: inhibition of tumour cell growth, NCI panel, 48 h
SNB-75 = test system: SNB-75
MOLT-4 = test system: MOLT-4
A549 = test system: A549
SN12C = test system: SN12C
NCI-H460 = test system: NCI-H460
OVCAR-5 = test system: OVCAR-5
U-251 = test system: U-251
SF-268 = test system: SF-268
HL-60 = test system: HL-60
CAKI-1 = test system: CAKI-1
HOP-92 = test system: HOP-92
LOX IMVI = test system: LOX IMVI
K562 = test system: K562
UO-31 = test system: UO-31
SW-620 = test system: SW-620
SK-MEL-2 = test system: SK-MEL-2
Malme-3M = test system: Malme-3M

Measured: GI50

NS(=O)(=O)c1ccc(NC2=CC(=O)C(=O)c3ccccc32)cc1
inactive: SNB-75 > 100 µM | MOLT-4 72.1 µM | A549 > 100 µM | SN12C > 100 µM | NCI-H460 > 100 µM | OVCAR-5 > 100 µM | U-251 > 100 µM | SF-268 > 100 µM | HL-60 > 100 µM | CAKI-1 > 100 µM | HOP-92 > 100 µM | LOX IMVI > 100 µM | K562 > 100 µM | UO-31 > 100 µM | SW-620 > 100 µM | SK-MEL-2 > 100 µM | Malme-3M > 100 µM

O=[N+]([O-])c1ccc(/C=N/C23CC4CC(CC(C4)C2)C3)cc1
inactive: SNB-75 > 100 µM | MOLT-4 > 100 µM | SN12C > 100 µM | NCI-H460 > 100 µM | OVCAR-5 > 100 µM | U-251 > 100 µM | SF-268 > 100 µM | HL-60 71.3 µM | CAKI-1 > 100 µM | HOP-92 > 100 µM | LOX IMVI 85.7 µM | K562 54.7 µM | UO-31 > 100 µM | SK-MEL-2 > 100 µM | Malme-3M > 100 µM

CN(C)/C=C/C(=O)c1cccc(C(=O)/C=C/N(C)C)n1
inactive: SNB-75 > 100 µM | MOLT-4 > 100 µM | A549 > 100 µM | SN12C > 100 µM | NCI-H460 > 100 µM | OVCAR-5 > 100 µM | U-251 > 100 µM | SF-268 > 100 µM | HL-60 > 100 µM | HOP-92 > 100 µM | LOX IMVI > 100 µM | K562 > 100 µM | UO-31 > 100 µM | SW-620 > 100 µM | SK-MEL-2 > 100 µM | Malme-3M > 100 µM

O=C1c2c(c3c4ccccc4n(CC4CO4)c3c3[nH]c4ccccc4c23)C(=O)N1Cc1ccccc1 (stereo not given)
inactive: SNB-75 > 10 µM | MOLT-4 38.6 µM | A549 > 100 µM | SN12C > 100 µM | NCI-H460 89.5 µM | OVCAR-5 > 100 µM | U-251 > 100 µM | SF-268 > 100 µM | HL-60 > 100 µM | CAKI-1 > 100 µM | HOP-92 > 100 µM | LOX IMVI > 100 µM | K562 95.7 µM | UO-31 > 100 µM | SW-620 77.6 µM | SK-MEL-2 > 100 µM | Malme-3M > 100 µM

N#CCN1C(=O)c2cc([N+](=O)[O-])cc3cc([N+](=O)[O-])cc(c23)C1=O
inactive: SNB-75 26.1 µM | MOLT-4 2.38 µM | A549 18.6 µM | SN12C 13.1 µM | NCI-H460 14.9 µM | OVCAR-5 18.9 µM | U-251 17.9 µM | SF-268 17 µM | HL-60 3.21 µM | CAKI-1 23.9 µM | HOP-92 17.1 µM | LOX IMVI 6.41 µM | K562 5.68 µM | UO-31 13.8 µM | SW-620 7.53 µM | SK-MEL-2 3.94 µM | Malme-3M 14.8 µM

CN1C(=O)N(c2nc3ccccc3[nH]2)C(C)(C)C1=O
inactive: SNB-75 > 100 µM | MOLT-4 > 100 µM | A549 > 100 µM | SN12C > 100 µM | U-251 > 100 µM | SF-268 > 100 µM | HL-60 > 100 µM | LOX IMVI > 100 µM | K562 > 100 µM | UO-31 > 100 µM | SW-620 > 100 µM | SK-MEL-2 > 100 µM | Malme-3M > 100 µM

CCOC(=O)C1=C(C)N(c2ccc(C)cc2)C2=C(C(=O)N(c3ccccc3)C2c2ccccc2)C1c1ccccc1 (stereo not given)
inactive: SNB-75 1.51 µM | MOLT-4 7.82 µM | A549 10.7 µM | SN12C > 25 µM | NCI-H460 13.3 µM | U-251 > 25 µM | SF-268 > 25 µM | HL-60 > 25 µM | LOX IMVI > 25 µM | K562 19.8 µM | UO-31 21 µM | SW-620 > 25 µM | SK-MEL-2 > 25 µM | Malme-3M > 25 µM

CCOC(=O)c1[nH]c(COC(C)=O)c(CCCOC(C)=O)c1CCCOC(C)=O
inactive: MOLT-4 > 100 µM | A549 > 100 µM | SN12C > 100 µM | NCI-H460 > 100 µM | OVCAR-5 > 100 µM | U-251 > 100 µM | SF-268 > 100 µM | HL-60 > 100 µM | CAKI-1 > 100 µM | HOP-92 > 100 µM | LOX IMVI > 100 µM | K562 > 100 µM | SW-620 > 100 µM | SK-MEL-2 > 100 µM | Malme-3M > 100 µM

ClC/C=C/COC1CCCCO1 (stereo not given)
inactive: SNB-75 > 100 µM | MOLT-4 29 µM | A549 > 100 µM | SN12C > 100 µM | NCI-H460 > 100 µM | OVCAR-5 > 100 µM | U-251 65.9 µM | SF-268 63.7 µM | HL-60 20.6 µM | CAKI-1 89.9 µM | HOP-92 > 100 µM | K562 > 100 µM | UO-31 > 100 µM | SW-620 > 100 µM | SK-MEL-2 > 100 µM | Malme-3M > 100 µM

Cc1cc2c(cc1C)[n+]([O-])c(C(=O)C/C(=N/NC(=S)NN)C(=O)Nc1cccc(C(F)(F)F)c1)c[n+]2[O-]
inactive: SNB-75 > 100 µM | MOLT-4 > 100 µM | A549 > 100 µM | SN12C > 100 µM | NCI-H460 > 100 µM | OVCAR-5 > 100 µM | U-251 > 100 µM | SF-268 > 100 µM | HL-60 > 100 µM | CAKI-1 > 100 µM | HOP-92 > 100 µM | K562 > 100 µM | UO-31 > 100 µM | SW-620 > 100 µM | SK-MEL-2 > 100 µM | Malme-3M > 100 µM

OCc1cc2c(cn1)[nH]c1ccc(NCc3ccccc3)cc12
inactive: SNB-75 25.5 µM | MOLT-4 17.5 µM | A549 28.1 µM | SN12C 34.9 µM | NCI-H460 24.4 µM | OVCAR-5 27.7 µM | U-251 38.9 µM | SF-268 20.5 µM | HL-60 12.1 µM | CAKI-1 27.4 µM | HOP-92 15.9 µM | LOX IMVI 28.4 µM | K562 23 µM | UO-31 20.7 µM | SW-620 27.4 µM | SK-MEL-2 40.2 µM | Malme-3M 28.7 µM

N#CC(C#N)=CSc1ccccc1
inactive: SNB-75 24.1 µM | MOLT-4 13.2 µM | A549 19.6 µM | SN12C 19.6 µM | NCI-H460 34 µM | OVCAR-5 26.3 µM | U-251 16.5 µM | SF-268 13.4 µM | HL-60 11.9 µM | CAKI-1 26.2 µM | HOP-92 50.2 µM | LOX IMVI 12.6 µM | K562 80.7 µM | UO-31 13.3 µM | SW-620 32.4 µM | SK-MEL-2 18.7 µM

N#CC(C(=O)Nc1ccccc1)C1=C(Cl)C(=O)c2ccccc2C1=O (stereo not given)
inactive: SNB-75 > 10 µM | A549 19.6 µM | SN12C 15.7 µM | NCI-H460 33.9 µM | OVCAR-5 17.6 µM | U-251 27.2 µM | SF-268 15.7 µM | HL-60 4.23 µM | CAKI-1 18 µM | HOP-92 14.3 µM | LOX IMVI 15.7 µM | K562 13.6 µM | UO-31 13.9 µM | SW-620 20.6 µM | SK-MEL-2 16.3 µM | Malme-3M 13.8 µM

O=C1C(Cl)C(c2cc(Br)cc(Br)c2O)N1n1cnc2ccccc2c1=O (stereo not given)
inactive: SNB-75 25.3 µM | MOLT-4 7.46 µM | A549 65.9 µM | SN12C 27.5 µM | NCI-H460 12.6 µM | OVCAR-5 19.4 µM | U-251 6.35 µM | SF-268 10.7 µM | HL-60 16.8 µM | CAKI-1 17.7 µM | LOX IMVI 14.1 µM | K562 26.2 µM | UO-31 20.7 µM | SW-620 35.8 µM | SK-MEL-2 21.1 µM | Malme-3M 19 µM

Clc1ccccc1C1N2CCCCC2[C@@H]2c3[nH]c4ccccc4c3CCN12 (stereo not given in full)
inactive: SNB-75 32.4 µM | MOLT-4 31 µM | A549 > 10 µM | SN12C 16.7 µM | NCI-H460 19.4 µM | OVCAR-5 20.9 µM | U-251 17.7 µM | SF-268 17.9 µM | HL-60 19.5 µM | CAKI-1 > 10 µM | HOP-92 41.7 µM | K562 14.3 µM | UO-31 19.5 µM | SW-620 17.3 µM | SK-MEL-2 16.7 µM | Malme-3M 4.84 µM

CC1=CC(=O)CC2(C)CC[C@@H]3C[C@]12OC3(C)C (stereo not given in full)
inactive: SNB-75 > 100 µM | MOLT-4 > 100 µM | A549 > 100 µM | SN12C > 100 µM | NCI-H460 > 100 µM | OVCAR-5 > 100 µM | U-251 > 100 µM | SF-268 > 100 µM | HL-60 > 100 µM | CAKI-1 > 100 µM | HOP-92 > 100 µM | LOX IMVI > 100 µM | K562 > 100 µM | UO-31 > 100 µM | SW-620 > 100 µM | SK-MEL-2 > 100 µM | Malme-3M > 100 µM

N=C1NC(=O)N2CC12 (stereo not given) [IMEXON]
inactive: SNB-75 > 100 µM | MOLT-4 > 100 µM | A549 > 100 µM | SN12C > 100 µM | NCI-H460 > 100 µM | U-251 > 100 µM | SF-268 > 100 µM | HL-60 30.5 µM | CAKI-1 > 100 µM | HOP-92 > 100 µM | LOX IMVI > 100 µM | K562 73.1 µM | UO-31 > 100 µM | SW-620 > 100 µM | SK-MEL-2 > 100 µM | Malme-3M > 100 µM
